From article PMC7114156 (Antiviral Research, 2009)
Entries after “also recorded” stand apart in the source; their conditions may differ. Marks after values point to notes of the source that are not given here.

Experiments:
[1] = system: HKC cells; test: mRNA measurement by RT-qPCR in HKC cells; format: cell-based, human
[2] = system: IFIT1 promoter; test: Luciferase assay, luciferase under control of the IFIT1 promoter in HEK293 cells; format: cell-based, human; settings: 10 and 30 nM, over a 48-h period
[3] = system: immortalized cell lines; test: Growth of immortalized cell lines; format: cell-based
[4] = system: primary cells; test: Growth of primary cells; format: cell-based, human; settings: at concentrations below 1 μM
[5] = system: HPV; test: Viral DNA levels in the three HPV-infected cell lines; format: cell-based; settings: read-out: K values, viral DNA levels
[6] = HKC cells, 100 nM, 24 h, not significantly different from 1
[7] = HKC cells, 100 nM, 48 h, not significantly different from 1

O=C(N[C@@H]1CCCc2c1[nH]c1ccc(Cl)cc21)c1ccccn1 [GSK983, N-[(1R)-6-Chloro-2,3,4,9-tetrahydro-1H-carbazol-1-yl]-2-pyridinecarboxamide]
Fold increase due to GSK983, BIK mRNA ([1]; HKC cells, 10 nM, 48 h): 1.8 fold | Fold increase due to GSK983, CDKN1A mRNA ([1]; HKC cells, 10 nM, 48 h): 1.6 fold | Fold increase due to GSK983, CSF2 mRNA ([1]; HKC cells, 10 nM, 48 h): 4.1 fold | Fold increase due to GSK983, IFI16 mRNA ([1]; HKC cells, 10 nM, 48 h): 2.7 fold | Fold increase due to GSK983, IRF3 mRNA ([1]; HKC cells, 10 nM, 48 h): 2.4 fold | Fold increase due to GSK983, MDM2 mRNA ([1]; HKC cells, 10 nM, 48 h): 3.2 fold | Fold increase due to GSK983, MGP mRNA ([1]; HKC cells, 10 nM, 48 h): 2.9 fold | Fold increase due to GSK983, MMP1 mRNA ([1]; HKC cells, 10 nM, 48 h): 2.2 fold | Fold increase due to GSK983, IRF9 mRNA ([1]; HKC cells, 10 nM, 48 h, not significantly different from 1): 1.5 ^b fold | Fold increase due to GSK983, ABCD1 mRNA ([1]; HKC cells, 100 nM, 24 h): 2.3 fold | Fold increase due to GSK983, ABCG1 mRNA ([1]; HKC cells, 100 nM, 24 h): 5.0 fold | Fold increase due to GSK983, BIK mRNA ([1]; HKC cells, 100 nM, 24 h): 2.3 fold | Fold increase due to GSK983, CDKN1A mRNA ([1]; HKC cells, 100 nM, 24 h): 1.8 fold | Fold increase due to GSK983, CSF2 mRNA ([1]; HKC cells, 100 nM, 24 h): 2.8 fold | Fold increase due to GSK983, IRF9 mRNA ([1]; HKC cells, 100 nM, 24 h): 1.6 fold | Fold increase due to GSK983, MDM2 mRNA ([1]; HKC cells, 100 nM, 24 h): 2.4 fold | Fold increase due to GSK983, MGP mRNA ([1]; HKC cells, 100 nM, 24 h): 2.0 fold | Fold increase due to GSK983, ADAMTS5 mRNA [1, 6]: 1.3 ^b fold | Fold increase due to GSK983, IFI6 mRNA [1, 6]: 1.1 ^b fold | Fold increase due to GSK983, IRF3 mRNA [1, 6]: 1.1 ^b fold | Fold increase due to GSK983, MMP1 mRNA [1, 6]: 5.2 ^b fold | Fold increase due to GSK983, ABCD1 mRNA ([1]; HKC cells, 100 nM, 48 h): 3.7 fold | Fold increase due to GSK983, ABCG1 mRNA ([1]; HKC cells, 100 nM, 48 h): 4.8 fold | Fold increase due to GSK983, ADAMTS5 mRNA ([1]; HKC cells, 100 nM, 48 h): 7.5 fold | Fold increase due to GSK983, BIK mRNA ([1]; HKC cells, 100 nM, 48 h): 3.7 fold | Fold increase due to GSK983, CDKN1A mRNA ([1]; HKC cells, 100 nM, 48 h): 4.3 fold | Fold increase due to GSK983, CSF2 mRNA ([1]; HKC cells, 100 nM, 48 h): 5.8 fold | Fold increase due to GSK983, MDM2 mRNA ([1]; HKC cells, 100 nM, 48 h): 2.9 fold | Fold increase due to GSK983, MGP mRNA ([1]; HKC cells, 100 nM, 48 h): 3.0 fold | Fold increase due to GSK983, MMP1 mRNA ([1]; HKC cells, 100 nM, 48 h): 5.0 fold | Fold increase due to GSK983, IFI16 mRNA [1, 7]: 0.8 ^b fold | Fold increase due to GSK983, IRF3 mRNA [1, 7]: 0.8 ^b fold | Fold increase due to GSK983, IRF9 mRNA [1, 7]: 1.5 ^b fold | Number of genes of the Pathway Set with significant increases in expression ([1]; primary human keratinocytes, at both 10 and 100 nM, 546 genes): 9 genes | Induction of luciferase under control of the IFIT1 promoter [2]: Strong induction | Selectivity index ([3]; EBV and HTLV-1 viral-immortalized cell lines vs related primary cells): approximately 1000 | Time after addition of the compound until reduction in growth rate ([3]; W12, U937 and IM9 growth curves): approximately 24 h | Concentrations at which apoptosis or cytostasis is induced ([3]; depending on the cell line): over 20 nM | EC50 ([3]; read-out: EC50 values, growth of cell lines immortalized by HTLV-1, EBV, HPV, SV40 and Ad-5): 10 to 40 nM | Inhibition of growth of primary cell types [4]: None of the primary cell types tested was significantly inhibited; also recorded: does not impact the growth | EC50 [5]: 2 to 5 nM
